Values of other authors in patent US6455557B1 (Elan Pharmaceuticals, Inc., priority 2001, dated 2002).
Like-named read-outs stand apart in the source and are kept apart here.

Assays:
[1] = not given; remark: listed apart in the source
[2] = not given; remark: listed apart in the source
plasma proteins = details: independent of concentration over the therapeutic range
[3] = oral administration, tablet formulation

In the case of `Clc1ccc2nsnc2c1NC1=NCCN1` [tizanidine, 5-chloro-4-(2-imidazolin-2-ylamino)-2,1,3-benzothiadiazole], the “Fraction of an administered dose metabolized” value (in vivo) is listed as “approximately 95%”, the “Mean steady state volume of distribution” value (intravenous administration, healthy adult volunteers) is listed as 2.4 L/kg and the Absolute oral bioavailability (oral) is listed as “approximately 40%”. The Half-life [3] was “approximately 2.5 hours”, the “Time of peak plasma concentrations after dosing” value [3] was 1.5 h and the “Dose linearity of pharmacokinetics” value (over a dose of 1 to 20 mg) was “linear pharmacokinetics”. For the same molecule, the “Extent of tizanidine absorption with food” value (tablet formulation, with food) was “not affected”, the “Increase of Cmax by food” value (tablet formulation, with food) was “approximately one-third” and the “Shortening of time to peak concentration by food” value (tablet formulation, with food) was “approximately 40 minutes”. For the same molecule, the “Sedation cases rated as severe” value ([1]; multiple dose, controlled clinical studies) was 10%, the “Patients reporting sedation as an adverse event” value ([1]; multiple dose, controlled clinical studies, any dose) was 48% and the “Patients continuing to report drowsiness 6 hours following dosing” value ([1]; single dose of 8 mg) was 13%. For the same molecule, the “Patients continuing to report drowsiness 6 hours following dosing” value ([1]; single dose of 16 mg) was 51%, the “Onset of drowsiness following dosing” value ([1]; single dose study) was 30 min and the “Peak of drowsiness following dosing” value ([1]; single dose study) was 1.5 h. For the same molecule, the “Patients reporting that they were drowsy during the 6 hour study” value ([1]; single dose study, 8 mg) was 76%, the “Patients reporting that they were drowsy during the 6 hour study” value ([1]; single dose study, 16 mg) was 92% and the “Muscle strength, as assessed by objective means” value ([2]; patients) was “not to be adversely affected”. For the same molecule, the “Spasm frequency and clonus” value ([2]; patients) was “reduced”, the “Subjective muscle weakness compared with baclofen or diazepam recipients” value ([2]; patients) was “reported less often” and the “Time of maximum anti-spastic effects after administration” value ([2]; some studies) was no more than 2 h. The “Bound to plasma proteins” value (plasma proteins) was “approximately 30%”.

For `Clc1cccc(Cl)c1N=C1NCCN1` [clonidine], the “Efficacy in treating spastic conditions” value ([2]; human, in vivo) is given as “ineffective”.
